Data published in patent US20120220562A1, “Anti-Viral Compounds” (ABBOTT LABAORATORIES, priority 2011, published 2012).

These molecules were tested on HCV 1b-Con1 replicon (assay: HCV 1b-Con1 replicon assay in the presence of 5% FBS). Settings: Hepatitis C virus.
Format: cell-based

Row | SMILES | EC50
1 | COC(=O)N[C@H](C(=O)N1CCC[C@H]1c1nc2ccc([C@H]3CC[C@H](c4ccc5nc([C@@H]6CCCN6C(=O)[C@@H](NC(=O)OC)C(C)C)[nH]c5c4)N3c3ccc(N(C(C)=O)C(C)(C)C)c(F)c3)cc2[nH]1)C(C)C [Example 2.8, methyl {(2S)-1-[(2S)-2-{6-[(2R,5R)-1-{4-[acetyl(tert-butyl)amino]-3-fluorophenyl}-5-{2-[(2S)-1-{(2S)-2-[(methoxycarbonyl)amino]-3-methylbutanoyl}pyrrolidin-2-yl]-1H-benzimidazol-6-yl}pyrrolidin-2-yl]-1H-benzimidazol-2-yl}pyrrolidin-1-yl]-3-methyl-1-oxobutan-2-yl}carbamate] | 0.1 to 1 nM
2 | COC(=O)N[C@H](C(=O)N1CCC[C@H]1c1nc2ccc([C@H]3CC[C@H](c4ccc5nc([C@@H]6CCCN6C(=O)[C@@H](NC(=O)OC)C(C)C)[nH]c5c4)N3c3cc(F)c(N4CCC(C)CC4)c(F)c3)cc2[nH]1)C(C)C [Example 2.9, methyl {(2S)-1-[(2S)-2-{6-[(2R,5R)-1-[3,5-difluoro-4-(4-methylpiperidin-1-yl)phenyl]-5-{2-[(2S)-1-{(2S)-2-[(methoxycarbonyl)amino]-3-methylbutanoyl}pyrrolidin-2-yl]-1H-benzimidazol-6-yl}pyrrolidin-2-yl]-1H-benzimidazol-2-yl}pyrrolidin-1-yl]-3-methyl-1-oxobutan-2-yl}carbamate] | < 0.1 nM
3 | COC(=O)N[C@H](C(=O)N1CCC[C@H]1c1nc2ccc([C@H]3CC[C@H](c4ccc5nc([C@@H]6CCCN6C(=O)[C@@H](NC(=O)OC)C(C)C)[nH]c5c4)N3c3cc(F)c(N4CCC(CCCc5ccccc5)CC4)c(F)c3)cc2[nH]1)C(C)C [Example 2.10, methyl {(2S)-1-[(2S)-2-{5-[(2R,5R)-1-{3,5-difluoro-4-[4-(3-phenylpropyl)piperidin-1-yl]phenyl}-5-{2-[(2S)-1-{(2S)-2-[(methoxycarbonyl)amino]-3-methylbutanoyl}pyrrolidin-2-yl]-1H-benzimidazol-5-yl}pyrrolidin-2-yl]-1H-benzimidazol-2-yl}pyrrolidin-1-yl]-3-methyl-1-oxobutan-2-yl}carbamate] | < 0.1 nM
4 | COC(=O)N[C@H](C(=O)N1CCC[C@H]1c1nc2ccc([C@H]3CC[C@H](c4ccc5nc([C@@H]6CCCN6C(=O)[C@@H](NC(=O)OC)C(C)C)[nH]c5c4)N3c3cc(F)c(N4CCC5(CCCC5)CC4)c(F)c3)cc2[nH]1)C(C)C [Example 2.11, methyl {(2S)-1-[(2S)-2-{5-[(2R,5R)-1-[4-(8-azaspiro[4.5]dec-8-yl)-3,5-difluorophenyl]-5-{2-[(2S)-1-{(2S)-2-[(methoxycarbonyl)amino]-3-methylbutanoyl}pyrrolidin-2-yl]-1H-benzimidazol-5-yl}pyrrolidin-2-yl]-1H-benzimidazol-2-yl}pyrrolidin-1-yl]-3-methyl-1-oxobutan-2-yl}carbamate] | < 0.1 nM
5 | COC(=O)N[C@H](C(=O)N1CCC[C@H]1c1nc2ccc([C@H]3CC[C@H](c4ccc5nc([C@@H]6CCCN6C(=O)[C@@H](NC(=O)OC)C(C)C)[nH]c5c4)N3c3cc(F)c(N4CCC(c5ccc6ccccc6c5)CC4)c(F)c3)cc2[nH]1)C(C)C [Example 2.12, methyl {(2S)-1-[(2S)-2-{5-[(2R,5R)-1-{3,5-difluoro-4-[4-(2-naphthyl)piperidin-1-yl]phenyl}-5-{2-[(2S)-1-{(2S)-2-[(methoxycarbonyl)amino]-3-methylbutanoyl}pyrrolidin-2-yl]-1H-benzimidazol-5-yl}pyrrolidin-2-yl]-1H-benzimidazol-2-yl}pyrrolidin-1-yl]-3-methyl-1-oxobutan-2-yl}carbamate] | < 0.1 nM
